# Measured values as given in patent US12077503B2, “Substituted cyclic amides and their use as herbicides” (FMC CORPORATION, priority 2015, dated 2024).
# Assays:
# Type in all cases: in vivo
# [1] = tested on: ragweed (common ragweed, Ambrosia elatior); assay: Test A postemergence
# Source text: (§1) Seeds of plant species selected from barnyardgrass (Echinochloa crus-galli), Kochia (Kochia scoparia), ragweed (common ragweed, Ambrosia elatior), ryegrass, Italian (Italian ryegrass, Lolium multiflorum), crabgrass, large (Digitaria sanguinalis), giant foxtail (Setaria faberii), green foxtail (Setaria viridis), morningglory (Ipomoea spp.), pigweed (Amaranthus retroflexus), velvetleaf (Abutilon theophrasti), wheat (Triticum aestivum), and corn (Zea mays) were planted into a blend of loam soil and sand and treated preemergence with a directed soil spray using test chemicals formulated in anon-phytotoxic solvent mixture which included a surfactant.
# (§2) At the same time, plants selected from these crop and weed species and also blackgrass (Alopecurus myosuroides), and Galium (catchweed bedstraw, Galium aparine) were planted in pots containing the same blend of loam soil and sand and treated with postemergence applications of test chemicals formulated in the same manner. Plants ranged in height from 2 to 10 cm and were in the one- to two-leaf stage for the postemergence treatment. Treated plants and untreated controls were maintained in a greenhouse for approximately 10 d, after which time all treated plants were compared to untreated controls and visually evaluated for injury. Plant response ratings, summarized in Table A, are based on a 0 to 100 scale where 0 is no effect and 100 is complete control. A dash (-) response means no test result.
# [2] = tested on: giant foxtail (Setaria faberii); assay: Test A postemergence
# Source text: as §1, §2
# Kochia (Kochia scoparia) [3] = assay: Test A postemergence
# Source text: as §1, §2
# [4] = tested on: ryegrass, Italian (Italian ryegrass, Lolium multiflorum); assay: Test A postemergence
# Source text: as §1, §2
# [5] = tested on: blackgrass (Alopecurus myosuroides); assay: Test A postemergence
# Source text: as §1, §2
# [6] = tested on: Galium (catchweed bedstraw, Galium aparine); assay: Test A postemergence
# Source text: as §1, §2
# [7] = tested on: barnyardgrass (Echinochloa crus-galli); assay: Test A postemergence
# Source text: as §1, §2
# [8] = tested on: pigweed (Amaranthus retroflexus); assay: Test A postemergence
# Source text: as §1, §2
# [9] = tested on: wheat (Triticum aestivum); assay: Test A postemergence
# Source text: as §1, §2
# corn (Zea mays) = assay: Test A postemergence
# Source text: as §1, §2
# [10] = tested on: ragweed (common ragweed, Ambrosia elatior); assay: Test A preemergence; details: for Plant response rating, Ragweed: 125 g ai/ha, preemergence, 0 to 100 scale (0 no effect, 100 complete control); for Ragweed plant response rating (0 to 100 scale): Preemergence, 500 g ai/ha, 0 is no effect, 100 is complete control
# Source text: as §1, §2
# [11] = tested on: giant foxtail (Setaria faberii); assay: Test A preemergence; details: for Plant response rating, Foxtail, Giant: 125 g ai/ha, preemergence, 0 to 100 scale (0 no effect, 100 complete control); for Foxtail, Giant plant response rating (0 to 100 scale): Preemergence, 500 g ai/ha, 0 is no effect, 100 is complete control
# Source text: as §1, §2
# Kochia (Kochia scoparia) [12] = assay: Test A preemergence; details: for Plant response rating, Kochia: 125 g ai/ha, preemergence, 0 to 100 scale (0 no effect, 100 complete control); for Kochia plant response rating (0 to 100 scale): Preemergence, 500 g ai/ha, 0 is no effect, 100 is complete control
# Source text: as §1, §2
# [13] = tested on: ryegrass, Italian (Italian ryegrass, Lolium multiflorum); assay: Test A preemergence; details: for Plant response rating, Ryegrass, Italian: 125 g ai/ha, preemergence, 0 to 100 scale (0 no effect, 100 complete control); for Ryegrass, Italian plant response rating (0 to 100 scale): Preemergence, 500 g ai/ha, 0 is no effect, 100 is complete control
# Source text: as §1, §2
# [14] = tested on: barnyardgrass (Echinochloa crus-galli); assay: Test A preemergence; details: for Plant response rating, Barnyardgrass: 125 g ai/ha, preemergence, 0 to 100 scale (0 no effect, 100 complete control); for Barnyardgrass plant response rating (0 to 100 scale): Preemergence, 500 g ai/ha, 0 is no effect, 100 is complete control
# Source text: as §1, §2
# [15] = tested on: pigweed (Amaranthus retroflexus); assay: Test A preemergence; details: for Plant response rating, Pigweed: 125 g ai/ha, preemergence, 0 to 100 scale (0 no effect, 100 complete control); for Pigweed plant response rating (0 to 100 scale): Preemergence, 500 g ai/ha, 0 is no effect, 100 is complete control
# Source text: as §1, §2
# [16] = tested on: sedge, umbrella (small-flower umbrella sedge, Cyperus difformis); assay: Test B flooded paddy test; details: Flood, 250 g ai/ha; 0 to 100 scale where 0 is no effect and 100 is complete control; 13 to 15 d
# Outline: (§3)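 Evaluation by eye, against controls, occurred 13–15 d post-treatment in a greenhouse, using a 0 (no effect) to 100 (complete control) scale. Application was into the paddy water, 3 cm deep over the soil, on 2-leaf plants.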
# rice (Oryra sativa) = assay: Test B flooded paddy test; details: Flood, 250 g ai/ha; 0 to 100 scale where 0 is no effect and 100 is complete control; 13 to 15 d
# Outline: as §3
# [17] = tested on: barnyardgrass (Echinochloa crus-galli); assay: Test B flooded paddy test; details: Flood, 250 g ai/ha; 0 to 100 scale where 0 is no effect and 100 is complete control; 13 to 15 d
# Outline: as §3
# [18] = tested on: ducksalad (Heteranthera limosa); assay: Test B flooded paddy test; details: Flood, 250 g ai/ha; 0 to 100 scale where 0 is no effect and 100 is complete control; 13 to 15 d
# Outline: as §3
# [19] = 500 g ai/ha, postemergence, 0 to 100 scale, 0 no effect, 100 complete control
# [20] = Postemergence, 125 g ai/ha, visual injury, 0 to 100 scale (0 no effect, 100 complete control), approx. 10 d
structure (smiles),measurement,setting,value
O=C1NCC(c2cccc(F)c2)C1C(=O)Nc1cccc(F)c1F (racemic) [Compound 375],"Plant response rating, Ragweed",[1]; [19],20
same,"Plant response rating, Ragweed",[1]; [20],0
same,"Plant response rating, Foxtail, Giant",[2]; [19],90
same,"Plant response rating, Foxtail, Giant",[2]; [20],90
same,"Plant response rating, Kochia",Kochia (Kochia scoparia) [3]; [19],60
same,"Plant response rating, Kochia",Kochia (Kochia scoparia) [3]; [20],30
same,"Plant response rating, Ryegrass, Italian",[4]; [19],20
same,"Plant response rating, Ryegrass, Italian",[4]; [20],0
same,"Plant response rating, Blackgrass",[5]; [19],70
same,"Plant response rating, Blackgrass",[5]; [20],50
same,"Plant response rating, Galium",[6]; [19],50
same,"Plant response rating, Galium",[6]; [20],40
same,"Plant response rating, Barnyardgrass",[7]; [19],90
same,"Plant response rating, Barnyardgrass",[7]; [20],90
same,"Plant response rating, Pigweed",[8]; [19],50
same,"Plant response rating, Pigweed",[8]; [20],20
same,"Plant response rating, Wheat",[9]; [19],80
same,"Plant response rating, Wheat",[9]; [20],30
same,"Plant response rating, Corn",corn (Zea mays); [19],80
same,"Plant response rating, Corn",corn (Zea mays); [20],30
same,"Plant response rating, Ragweed",[10],0
same,Ragweed plant response rating (0 to 100 scale),[10],70
same,"Plant response rating, Foxtail, Giant",[11],90
same,"Foxtail, Giant plant response rating (0 to 100 scale)",[11],90
same,"Plant response rating, Kochia",Kochia (Kochia scoparia) [12],20
same,Kochia plant response rating (0 to 100 scale),Kochia (Kochia scoparia) [12],70
same,"Plant response rating, Ryegrass, Italian",[13],20
same,"Ryegrass, Italian plant response rating (0 to 100 scale)",[13],50
same,"Plant response rating, Barnyardgrass",[14],90
same,Barnyardgrass plant response rating (0 to 100 scale),[14],90
same,"Plant response rating, Pigweed",[15],20
same,Pigweed plant response rating (0 to 100 scale),[15],70
same,"Plant response rating, Sedge, Umbrella",[16],0
same,"Plant response rating, Rice",rice (Oryra sativa),30
same,"Plant response rating, Barnyardgrass",[17],70
same,"Plant response rating, Ducksalad",[18],100
O=C1NCC(c2ccccc2-c2ccccc2)C1C(=O)Nc1cccc(F)c1F (racemic) [Compound 379],"Plant response rating, Ragweed",[1]; [19],0
same,"Plant response rating, Ragweed",[1]; [20],0
same,"Plant response rating, Foxtail, Giant",[2]; [19],20
same,"Plant response rating, Foxtail, Giant",[2]; [20],0
same,"Plant response rating, Kochia",Kochia (Kochia scoparia) [3]; [19],0
same,"Plant response rating, Kochia",Kochia (Kochia scoparia) [3]; [20],0
same,"Plant response rating, Ryegrass, Italian",[4]; [19],0
same,"Plant response rating, Ryegrass, Italian",[4]; [20],0
same,"Plant response rating, Blackgrass",[5]; [19],0
same,"Plant response rating, Blackgrass",[5]; [20],0
same,"Plant response rating, Galium",[6]; [19],0
same,"Plant response rating, Galium",[6]; [20],0
same,"Plant response rating, Barnyardgrass",[7]; [19],50
same,"Plant response rating, Barnyardgrass",[7]; [20],0
same,"Plant response rating, Pigweed",[8]; [19],0
same,"Plant response rating, Pigweed",[8]; [20],0
same,"Plant response rating, Wheat",[9]; [19],0
same,"Plant response rating, Wheat",[9]; [20],0
same,"Plant response rating, Corn",corn (Zea mays); [19],0
same,"Plant response rating, Corn",corn (Zea mays); [20],0
same,"Plant response rating, Ragweed",[10],0
same,Ragweed plant response rating (0 to 100 scale),[10],0
same,"Plant response rating, Foxtail, Giant",[11],0
same,"Foxtail, Giant plant response rating (0 to 100 scale)",[11],40
same,"Plant response rating, Kochia",Kochia (Kochia scoparia) [12],0
same,Kochia plant response rating (0 to 100 scale),Kochia (Kochia scoparia) [12],0
same,"Plant response rating, Ryegrass, Italian",[13],0
same,"Ryegrass, Italian plant response rating (0 to 100 scale)",[13],0
same,"Plant response rating, Barnyardgrass",[14],0
same,Barnyardgrass plant response rating (0 to 100 scale),[14],30
same,"Plant response rating, Pigweed",[15],0
same,Pigweed plant response rating (0 to 100 scale),[15],0
same,"Plant response rating, Sedge, Umbrella",[16],0
same,"Plant response rating, Rice",rice (Oryra sativa),0
same,"Plant response rating, Barnyardgrass",[17],0
same,"Plant response rating, Ducksalad",[18],0
